Read-outs that look alike come from different tables or passages of the source.
How the values were obtained:
Assay type in all cases: cell-based
Pseudomonas aeruginosa = experiment: Cell enlargement after one hour incubation with antibiotic, P. aeruginosa
Protocol: Pseudomonas aeruginosa, a common source of dangerous nosocomial infections, was also evaluated. […] Those correlated breakpoint concentrations for enlargement were 0.5 μg/ml for susceptible strains and greater than 1.0 μg/ml for resistant strains.
P. aeruginosa was evaluated for the effect of carbapenems, meropenem and imipenem, which we corroborate that induce cell enlargement in the susceptible strains of this bacterium. CLSI breakpoint concentrations of susceptibility and resistance correspond to MICs≤2-≥8 μg/ml, respectively. For cell enlargement, the new breakpoint concentrations were much lower: ≤0.2->0.5 μg/ml, for susceptibility and resistance, respectively. One hundred and thirty strains of P. aeruginosa were studied, obtaining 97 susceptible, 14 intermediate and 19 resistant to meropenem, following the standard criterion of growth affectation as indicated by MIC-CL SI. All these strains were correctly categorized when using the new breakpoints for enlargement/non-enlargement.

Klebsiella pneumoniae = experiment: Cell enlargement after incubation with antibiotic, K. pneumoniae; conditions: correlated to CLSI MIC≤4 μg/ml
Protocol: Klebsiella pneumoniae, another significant pathogen in clinical settings, was also evaluated. […] Strains were considered to be resistant when no cell enlargement was presented at either concentration.

Acinetobacter baumannii [1] = experiment: Cell enlargement after one hour incubation with antibiotic (microgel, SYBR Gold, fluorescence microscopy), A. baumannii
Protocol: Each dose was correlated to susceptibility breakpoints established in Example 1. The incubated samples were then assessed under microscopy for enlargement. The criterion of enlargement/non-enlargement was determined by a comparison to a control dose of 0 μg/ml. […] Using the criterion of enlargement/non-enlargement and the correlated breakpoint concentrations, each of the 320 strains were correctly identified.

Acinetobacter baumannii [2] = experiment: MIC of ceftazidime by E-test in A. baumannii strains; conditions: read-out: MIC determined by E-test

Structure (SMILES) | cell enlargement, resistant strains (Pseudomonas aeruginosa; 1 h incubation with 0.5 μg/ml and 1 μg/ml, 5 strains) | cell enlargement, intermediate strains (Pseudomonas aeruginosa; 1 h incubation with 0.5 μg/ml and 1 μg/ml, 8 strains) | cell enlargement, susceptible strains (Pseudomonas aeruginosa; 1 h incubation with 0.5 μg/ml and 1 μg/ml, 117 strains) | breakpoint concentration for cell enlargement, susceptible strains (Pseudomonas aeruginosa; ceftazidime, correlated to CLSI MIC≤8 μg/ml) [µg/mL] | breakpoint concentration for cell enlargement, resistant strains (Pseudomonas aeruginosa; ceftazidime, correlated to CLSI MIC≥32 μg/ml) | breakpoint concentration for cell enlargement, susceptible strains (Klebsiella pneumoniae) [µg/mL] | breakpoint concentration for cell enlargement, intermediate (Acinetobacter baumannii [1]; empirically correlated to CLSI MIC breakpoint 16 μg/ml) [µg/mL] | breakpoint concentration for cell enlargement, susceptible (Acinetobacter baumannii [1]; empirically correlated to CLSI MIC breakpoint ≤8 μg/ml) [µg/mL] | breakpoint concentration for cell enlargement, resistant (Acinetobacter baumannii [1]; empirically correlated to CLSI MIC breakpoint ≥32 μg/ml) [µg/mL] | cell enlargement (Acinetobacter baumannii [1]; highly resistant strain, 1 h incubation, tested 2, 4, 8 μg/ml) | concentration from which cell enlargement is demonstrated (Acinetobacter baumannii [1]; intermediate strain, 1 h incubation, tested 2, 4, 8 μg/ml) [µg/mL] | concentration from which cell enlargement is demonstrated (Acinetobacter baumannii [1]; resistant strain, 1 h incubation, tested 2, 4, 8 μg/ml) [µg/mL] | concentration from which cell enlargement is demonstrated (Acinetobacter baumannii [1]; susceptible strain, 1 h incubation, tested 2, 4, 8 μg/ml) [µg/mL] | MIC (Acinetobacter baumannii [2]; highly resistant strain of A. baumannii (FIG. 2, fourth row)) [µg/mL] | MIC (Acinetobacter baumannii [2]; intermediate strain of A. baumannii (FIG. 2, second row)) [µg/mL] | MIC (Acinetobacter baumannii [2]; susceptible strain of A. baumannii (FIG. 2, first row)) [µg/mL] | cell enlargement, intermediate strains (Pseudomonas aeruginosa; incubation with 0.2 μg/ml and 0.5 μg/ml, 14 strains) | cell enlargement, resistant strains (Pseudomonas aeruginosa; incubation with 0.2 μg/ml and 0.5 μg/ml, 19 strains) | cell enlargement, susceptible strains (Pseudomonas aeruginosa; incubation with 0.2 μg/ml and 0.5 μg/ml, 97 strains)
CC(C)(O/N=C(\C(=O)N[C@@H]1C(=O)N2C(C(=O)[O-])=C(C[n+]3ccccc3)CS[C@H]12)c1csc(N)n1)C(=O)O [ceftazidime] | never appeared enlarged | only after 1 μg/ml | appeared enlarged | 0.5 | greater than 1.0 μg/ml | 0.5 | 4 | ≤ 2 | ≥ 8 | did not demonstrate enlargement at any tested concentration | 8 | 8 | 2 | > 256 | 12 | 2.5 |  |  | 
C[C@@H](O)[C@H]1C(=O)N2C(C(=O)O)=C(S[C@@H]3CN[C@H](C(=O)N(C)C)C3)[C@H](C)[C@H]12 [meropenem] |  |  |  |  |  |  |  |  |  |  |  |  |  |  |  |  | only after 0.5 μg/ml | never appeared enlarged | appeared enlarged

Source: patent US12221646B2, “Method for the rapid determination of susceptibility or resistance of bacteria to antibiotics” (ABM TECHNOLOGIES, LLC, priority 2013, dated 2025)
